pIC50: −log10 of the molar value.

In the test the target is T1, Mineralocorticoid receptor (Homo sapiens, UniProt P08235).
T1 sequence (P08235 whole entry): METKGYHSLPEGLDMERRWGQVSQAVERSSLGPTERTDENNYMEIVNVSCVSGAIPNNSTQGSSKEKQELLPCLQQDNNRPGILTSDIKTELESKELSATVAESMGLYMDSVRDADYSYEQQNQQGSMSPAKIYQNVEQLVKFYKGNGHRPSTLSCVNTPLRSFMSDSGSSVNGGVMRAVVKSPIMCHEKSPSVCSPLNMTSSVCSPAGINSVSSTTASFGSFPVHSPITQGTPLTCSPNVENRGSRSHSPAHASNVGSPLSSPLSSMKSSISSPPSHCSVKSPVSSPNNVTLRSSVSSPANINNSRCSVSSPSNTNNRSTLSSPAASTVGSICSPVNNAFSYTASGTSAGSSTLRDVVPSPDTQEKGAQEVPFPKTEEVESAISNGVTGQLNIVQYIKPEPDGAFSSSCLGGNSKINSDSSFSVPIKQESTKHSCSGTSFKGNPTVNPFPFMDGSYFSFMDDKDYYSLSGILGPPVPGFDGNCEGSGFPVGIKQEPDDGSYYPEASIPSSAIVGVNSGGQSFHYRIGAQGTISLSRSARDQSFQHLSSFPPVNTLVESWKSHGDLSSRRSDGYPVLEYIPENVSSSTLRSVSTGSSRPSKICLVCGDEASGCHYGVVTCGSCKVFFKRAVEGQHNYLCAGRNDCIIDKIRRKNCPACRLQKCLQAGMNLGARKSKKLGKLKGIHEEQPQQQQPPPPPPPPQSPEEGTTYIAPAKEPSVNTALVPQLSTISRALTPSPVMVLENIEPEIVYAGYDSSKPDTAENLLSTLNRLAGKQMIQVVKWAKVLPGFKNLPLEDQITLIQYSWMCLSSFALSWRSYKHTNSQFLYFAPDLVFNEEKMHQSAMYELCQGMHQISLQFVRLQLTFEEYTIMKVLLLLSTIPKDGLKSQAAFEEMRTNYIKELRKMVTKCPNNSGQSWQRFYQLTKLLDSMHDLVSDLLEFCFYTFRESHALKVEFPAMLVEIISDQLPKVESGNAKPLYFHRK
Description: Antagonist activity at mineralocorticoid receptor LBD expressed in human HUH7 cells coexpressing GAL4 by luciferase reporter gene assay
The term pIC50 denotes −log10 of the IC50, conventionally taken in molar units. Lower therefore signals a large IC50. Regarding `COC(=O)C1=C(C)NC(C)=C(C(=O)OC(C)(C)C)C1c1ccc(C(F)(F)F)cc1` (centres undefined), the pIC50 was 6.51. The figure for `COC(=O)C1=C(C)NC(C)=C(C(=O)OC(C)(C)C)C1c1ccc(F)cc1` (centres undefined) is 6.54. In the case of `COC(=O)C1=C(C)NC(C)=C(C(=O)OC(C)(C)C)C1c1ccc(O)cc1` (centres undefined) it was 5.59; in that of `COC(=O)C1=C(C(C)C)NC(C)=C(C#N)C1c1ccccc1Cl` (centres undefined), 6.68.

In the case of `CC1=C(C#N)C(c2ccc(F)cc2F)C(C(=O)OC(C)(C)C)=C(C)N1` (centres undefined), the negative logarithm of the IC50 (pIC50) is 6.70. The figure for `COC(=O)C1=C(C)NC(C)=C(C(=O)OC(C)(C)C)C1c1ccc(Cl)c(F)c1` (centres undefined) is 6.24; for `COC(=O)C1=C(C)NC(C)=C(C(=O)OC(C)(C)C)C1c1cccc(O)c1` (centres undefined) it is 5.55; for `COC(=O)C1=C(C)NC(C)=C(C#N)C1c1ccccc1Cl` (centres undefined) it is 6.23. The figure for `COC(=O)C1=C(C)NC(C)=C(C(=O)OC(C)(C)C)C1c1ccc(C)cc1` (centres undefined) is 4.92; for `COCC1=C(C(=O)OC)C(c2ccccc2Cl)C(C#N)=C(C)N1` (centres undefined) it is 6.18. In the case of `CC1=C(C#N)C(c2ccc(F)cc2)C(C(=O)OC(C)(C)C)=C(C)N1` (centres undefined) it was 6.48. In turn, `COCCN1C(C)=C(C#N)C(c2ccc(F)cc2F)C(C(=O)OC(C)(C)C)=C1C` (centres undefined) showed a negative logarithm of the IC50 (pIC50) of 5.43.

Take `CC1=C(C#N)C(C)(c2ccc(F)cc2)C(C(=O)OC(C)(C)C)=C(C)N1` (centres undefined): the pIC50 is 6.18. In the case of `COC(=O)C1=C(C)NC(C)=C(C(=O)OC(C)(C)C)C1c1ccc(Cl)cc1` (centres undefined) it was 6.50. The figure for `COC(=O)C1=C(C)NC(C)=C(C(=O)OC(C)(C)C)C1c1cccc(F)c1` (centres undefined) is 5.86; for `COC(=O)C1=C(C)NC(C)=C(C(=O)OC(C)(C)C)C1c1ccc(F)cc1Cl` (centres undefined) it is 7.11; for `COC(=O)C1=C(C)NC(C)=C(C(=O)OC(C)(C)C)C1c1cccc(C#N)c1` (centres undefined) it is 5.49.

For `COC(=O)C1=C(C)NC(C)=C(C(=O)OC(C)(C)C)C1c1cccc(OC)c1` (centres undefined), the pIC50 is 6.05. Compound `COC(=O)C1=C(C)NC(C)=C(C(=O)OC(C)(C)C)C1c1cccc(C(F)(F)F)c1` (centres undefined) gave a negative-log IC50 (pIC50) of 6.15. In the case of `CCOC(=O)C1=C(c2ccc(Cl)cc2)NC(C)=C(C#N)C1c1ccccc1Cl` (centres undefined) it was 5.96; in that of `COC(=O)C1=C(C)NC(C)=C(C(=O)OC(C)(C)C)C1c1cccc(C)c1` (centres undefined), 5.55; in that of `COC(=O)C1=C(C)NC(C)=C(C(=O)OC(C)(C)C)C1c1ccccc1Cl` (centres undefined), 6.21. In the case of `CCOC(=O)C1=C(c2ccccc2)NC(C)=C(C#N)C1c1ccccc1Cl` (centres undefined) it was 6.03; in that of `CCCC1=C(C(=O)OC)C(c2ccccc2)C(C#N)=C(C)N1` (centres undefined), 5.13; in that of `CCC1=C(C(=O)OC)C(c2ccccc2Cl)C(C#N)=C(C)N1` (centres undefined), 6.63.

Compound `CCN1C(C)=C(C#N)C(c2ccc(F)cc2F)C(C(=O)OC(C)(C)C)=C1C` (centres undefined) gave a pIC50 of 5.79. In the case of `COC(=O)C1=C(C)NC(C)=C(C(=O)OC(C)(C)C)C1c1cccc(Cl)c1` (centres undefined) it was 6.29; in that of `COC(=O)C1=C(C)NC(C)=C(C(=O)OC(C)(C)C)C1c1ccccc1C` (centres undefined), 6.68; in that of `COC(=O)C1=C(C)NC(C)=C(C(=O)OC(C)(C)C)C1c1ccccc1F` (centres undefined), 5.69. Turning to `COC(=O)C1=C(Cc2ccccc2)NC(C)=C(C#N)C1c1ccccc1Cl` (centres undefined), the pIC50 is 6.07. In the case of `COC(=O)C1=C(C)NC(C)=C(C(=O)OC(C)(C)C)C1c1ccc(OC)cc1` (centres undefined) it was 5.58; in that of `COC(=O)C1=C(C)NC(C)=C(C(=O)OC(C)(C)C)C1c1ccccc1OC` (centres undefined), 6.26. In the case of `COC(=O)C1=C(C)NC(C)=C(C(=O)OC(C)(C)C)C1c1ccccc1C(F)(F)F` (centres undefined) it was 6.65; in that of `COC(=O)C1=C(C(F)(F)F)N(C)C(C)=C(C#N)C1c1ccc(F)cc1Cl` (centres undefined), 6.56.

These data come from ChEMBL document CHEMBL1212896, “Discovery of novel cyanodihydropyridines as potent mineralocorticoid receptor antagonists” (J Med Chem, 2010).
